This is an account of results in US7247633B2, “Pyrimidine compounds and their use” (Biovitrum AB, priority 2000, dated 2007).

Counter-ions that a name gives are not always drawn.

System in the first data set: not given
Test: not given
As to conditions: controlled studies; cited from earlier work.
Turning to `CCN[C@@H](C)Cc1cccc(C(F)(F)F)c1` [dexfenfluramine], the weight reduction entry was “exhibited weight reduction”.
Consider `CNCCC(Oc1ccc(C(F)(F)F)cc1)c1ccccc1` (centres unmarked) [fluoxetine], for which the weight reduction result is “exhibited weight reduction”.

System in another data set: not given
Test: not given
Conditions: not given
One may read the melting point as the temperature, or range, at which the solid turns liquid. `c1cncc(COc2cncc(N3CCNCC3)n2)c1` (as salt: acetate) [Example 11, 2-(1-Piperazinyl)-6-(3-pyridinylmethoxy)pyrazine] registered a melting point of 98 to 99 °C.
The compound `COc1cccc(COc2cncc(N3CCNCC3)n2)c1` (as salt: acetate) [Example 4, 2-[(3-Methoxybenzyl)oxy]-6-(1-piperazinyl)pyrazine] had a melting point of 111 to 113 °C.
Turning to `FC(F)(F)c1ccc(COc2cncc(N3CCNCC3)n2)cc1` (as salt: acetate) [Example 10, 2-(1-Piperazinyl)-6-{[4-(trifluoromethyl)benzyl]oxy}pyrazine], the melting point lay within 84 to 85 °C.
On to `c1ccc2c(CCOc3cncc(N4CCNCC4)n3)c[nH]c2c1` [Example 29, 2-[2-(1H-Indol-3-yl)ethoxy]-6-(1-piperazinyl)pyrazine], for which the melting point was 133 to 135 °C.
Still for that read-out and setting: next, `Clc1cccc(CCOc2cncc(N3CCNCC3)n2)c1` (as salt: acetate) [Example 8, 2-[2-(3-Chlorophenyl)ethoxy]-6-(1-piperazinyl)pyrazine]: 118 to 119 °C; `c1cncc(CCOc2cncc(N3CCNCC3)n2)c1` (as salt: acetate) [Example 12, 2-(1-Piperazinyl)-6-[2-(3-pyridinyl)ethoxy]pyrazine]: 90 to 91 °C; `COc1cccc(CCOc2cncc(OC3CCNCC3)n2)c1` [Example 45, 2-[2-(3-Methoxyphenyl)ethoxy]-6-(4-piperidinyloxy)pyrazine]: 86 to 87 °C.
For the compound `c1ccc(-c2ccc(COc3cncc(N4CCNCC4)n3)cc2)cc1` (as salt: acetate) [Example 7, 2-([1,1′-Biphenyl]-4-ylmethoxy)-6-(1-piperazinyl)pyrazine], the melting point is 102 to 104 °C.
As for `c1ccc(COc2cncc(N3CCNCC3)n2)cc1` (as salt: maleate) [Example 20, 2-(Benzyloxy)-6-(1-piperazinyl)pyrazine], the melting point lay in the range of 155 to 156 °C.
On the same count and under the same terms, next, `COc1cc(COc2cncc(N3CCNCC3)n2)cc(OC)c1` (as salt: maleate) [Example 68, 2-[(3,5-Dimethoxybenzyl)oxy]-6-(1-piperazinyl)pyrazine]: 134 to 137 °C; `Fc1cc(F)cc(COc2cncc(N3CCNCC3)n2)c1` (as salt: acetate) [Example 6, 2-[(3,5-Difluorobenzyl)oxy]-6-(1-piperazinyl)pyrazine]: 70 to 72 °C.
`Fc1ccc(COc2cncc(N3CCNCC3)n2)cc1` [Example 42, 2-[(4-Fluorobenzyl)oxy]-6-(1-piperazinyl)pyrazine]: the melting point was 183 °C.
Regarding `COc1ccccc1COc1cncc(N2CCNCC2)n1` (as salt: hydrochloride) [Example 5, 2-[(2-Methoxybenzyl)oxy]-6-(1-piperazinyl)pyrazine], the melting point lay within 171 to 173 °C.
Take `COc1ccc(CCOc2cncc(N3CCNCC3)n2)cc1` (as salt: maleate) [Example 69, 2-[2-(4-Methoxyphenyl)ethoxy]-6-(1-piperazinyl)pyrazine]: the melting point was 149 to 151 °C.
In the case of `c1ccc2c(c1)OCCC2Oc1cncc(N2CCNCC2)n1` (centres unmarked) (as salt: maleate) [Example 26, 2-(3,4-Dihydro-2H-chromen-4-yloxy)-6-(1-piperazinyl)pyrazine], the melting point was 179.5 to 182 °C.
Take `c1ccc(CCOc2cncc(N3CCNCC3)n2)cc1` (as salt: maleate) [Example 14, 2-(2-Phenylethoxy)-6-(1-piperazinyl)pyrazine]: the melting point lay in the range of 166 to 168 °C.
Still for that read-out and setting: next, `c1cc2c(cc1COc1cncc(N3CCNCC3)n1)OCO2` (as salt: acetate) [Example 3, 2-(1,3-Benzodioxol-5-ylmethoxy)-6-(1-piperazinyl)pyrazine]: 124 to 127 °C; `c1ccc2c(c1)ccn2CCOc1cncc(N2CCNCC2)n1` (as salt: maleate) [Example 28, 2-[2-(1H-Indol-1-yl)ethoxy]-6-(1-piperazinyl)pyrazine]: 160.5 to 163 °C.
On to `c1ccc2c(c1)CCCC2Oc1cncc(N2CCNCC2)n1` (centres unmarked) (as salt: acetate) [Example 9, 6-(1-Piperazinyl)-2-pyrazinyl 1,2,3,4-tetrahydro-1-naphthalenyl ether], for which the melting point fell in the range of 160 to 162 °C.

The target in the next data set is T1, human 5-HT2c receptor (Homo sapiens, UniProt P28335).
T1 construct: expressed in transfected cells
T1 sequence (P28335 33-458): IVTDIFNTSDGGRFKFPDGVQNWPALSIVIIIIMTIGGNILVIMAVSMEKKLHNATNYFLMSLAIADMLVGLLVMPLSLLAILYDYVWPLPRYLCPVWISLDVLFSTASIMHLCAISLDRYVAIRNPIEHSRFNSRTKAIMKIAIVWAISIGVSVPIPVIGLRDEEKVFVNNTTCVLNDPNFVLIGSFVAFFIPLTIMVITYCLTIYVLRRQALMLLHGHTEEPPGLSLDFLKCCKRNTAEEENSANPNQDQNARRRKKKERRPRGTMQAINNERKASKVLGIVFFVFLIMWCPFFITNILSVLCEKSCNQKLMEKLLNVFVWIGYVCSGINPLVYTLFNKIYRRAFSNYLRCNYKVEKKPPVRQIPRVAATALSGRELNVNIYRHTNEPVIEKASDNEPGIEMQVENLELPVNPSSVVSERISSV
The data set can be described thus: 5-HT2c receptor affinity assay (displacement of 3H-labelled 5-HT, Scintillation Proximity Assay). The settings on record: membranes of HEK293 cells stably expressing human 5-HT2c receptor; 3H-5-HT; non-specific binding 5 μM mianserin. On the procedure: The 5-HT2c receptor affinity of compounds in the Examples was determined in competition experiments, where the ability of each compound in serial dilution to displace ^3H-labelled 5-HT, bound to membranes prepared from a transfected HEK293 cell line stably expressing the human 5-HT2c receptor protein, was monitored by Scintillation Proximity Assay technology. Non-specific binding was defined using 5 μM mianserin.
(Displacement assays read how much labelled ligand stays bound in the presence of the test substance.)
As usually defined, the Ki is a dissociation constant, usually derived from enzyme kinetics or from competition with a known ligand. The compound `c1coc(-c2cncc(N3CCNCC3)n2)c1` [Example 15, 2-(2-Furyl)-6-(1-piperazinyl)pyrazine] displayed a Ki of 616 nM.
As to `c1ccc(COc2cncc(N3CCNCC3)n2)cc1` [Example 20, 2-(Benzyloxy)-6-(1-piperazinyl)pyrazine], the Ki amounted to 28 nM. This Ki is about 22-fold lower than that of the compound before.
Same read-out and setting: the result for `c1cc(OCc2cccs2)nc(N2CCNCC2)c1` [Example 18, 1-[6-(2-Thienylmethoxy)-2-pyridinyl]piperazine] reads 92 nM.
On to `FCCOc1cncc(N2CCNCC2)n1` [Example 23, 2-(2-Fluoroethoxy)-6-(1-piperazinyl)pyrazine], for which the Ki worked out at 478 nM.
On to `c1ccc(COc2ccnc(N3CCNCC3)n2)cc1` [Example 32, 4-(Benzyloxy)-2-(1-piperazinyl)pyrimidine], for which the affinity corresponds to a Ki of 48 nM.
For the compound `c1cncc(CCOc2cncc(N3CCNCC3)n2)c1` [Example 12, 2-(1-Piperazinyl)-6-[2-(3-pyridinyl)ethoxy]pyrazine], the Ki was found to be 197 nM. This Ki is about 4.1-fold higher than that of the compound before.
Regarding `CC(Oc1cncc(N2CCNCC2)n1)c1cccc(F)c1` (centres unmarked) [Example 2, 2-[1-(3-Fluorophenyl)ethoxy]-6-(1-piperazinyl)pyrazine], the affinity corresponds to a Ki of 8 nM.
As to `c1ccc(CCCCCOc2cncc(OC3CCNCC3)n2)cc1` [Example 48, 2-[(5-Phenylpentyl)oxy]-6-(4-piperidinyloxy)pyrazine], the affinity, expressed as Ki, was 37 nM.

System in a further data set: not given
Test: not given
The settings on record: obese subjects, after 2 weeks of treatment; cited from earlier work.
Take `Clc1cccc(N2CCNCC2)c1` [mCPP, m-chlorophenylpiperazine]: the body weight result is “slight but sustained reduction in body weight”.

A further data set has as its system 5-HT2c receptor.
Test: not given
As to conditions: mice expressing the mutated inactive form of the 5-HT2c receptor; cited from earlier work.
Take `Clc1cccc(N2CCNCC2)c1` [mCPP, m-chlorophenylpiperazine]: the food intake entry is given as “lacks activity”.

The target in another data set is T2, 5-HT2c receptor (Mus musculus, UniProt P34968).
T2 construct: mice that express the normal 5-HT2c receptor; host or cells: mice, in vivo
T2 sequence (P34968 33-459): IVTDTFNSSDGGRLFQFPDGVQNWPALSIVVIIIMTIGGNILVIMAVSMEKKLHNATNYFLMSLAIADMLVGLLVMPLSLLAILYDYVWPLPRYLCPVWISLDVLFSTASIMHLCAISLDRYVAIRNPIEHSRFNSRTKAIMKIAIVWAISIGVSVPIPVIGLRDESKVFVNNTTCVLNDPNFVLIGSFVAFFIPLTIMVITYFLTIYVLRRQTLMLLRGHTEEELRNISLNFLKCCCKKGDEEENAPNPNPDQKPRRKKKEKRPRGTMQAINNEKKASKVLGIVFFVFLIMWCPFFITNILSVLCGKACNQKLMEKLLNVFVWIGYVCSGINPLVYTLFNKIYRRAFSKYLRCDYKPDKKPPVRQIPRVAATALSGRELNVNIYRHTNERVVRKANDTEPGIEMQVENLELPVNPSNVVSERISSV
Test: not given
The settings on record: mice that express the normal 5-HT2c receptor; cited from earlier work.
On to `Clc1cccc(N2CCNCC2)c1` [mCPP, m-chlorophenylpiperazine], for which the food intake entry is on record as “reduces food intake”.
